Like-named read-outs stand apart in the source and are kept apart here.
What was measured:
[1] = molecular target: T1, CDK1 (p34^cdc2, cyclin B) (Homo sapiens, UniProt P06493); test: CDK inhibition assay, p34^cdc2 kinase, histone H1 phosphorylation; type: biochemical; conditions: 15 μM ATP, histone H1, 30° C.
T1 construct: made in house; host or cells: Sf9 insect cells (baculovirus co-infection)
Protocol: The controls contain suitable dilutions of DMSO.
2-glycerolphosphate, 1 mM NaF, 1 mM DTT

[2] = tested on: CDC2a (cdc2a-MS protein, plant Cdc2-kinase); type: biochemical; conditions: enzyme bound to p13^suc1-agarose, histone H1, various concentrations
Protocol: (§1) Enzyme activity bound to p13^suc1-agarose was measured by phosphorylation of histone H1 substrate protein in the presence of various concentrations of (1) 7-furfurylamino-3-methylpyrazolo[4,3-d]pyrimidine, (2) 7-benzylamino-3-isopropylpyrazolo[4,3-d]pyrimidine, (3) 7-(3-chloroanilino)-3-isopropylpyrazolo[4,3-d]pyrimidine, (4) 7-(3-hydroxybenzyl)amino-3-isopropylpyrazolo[4,3-d]pyrimidine.
(§2) The quantification of radioactivity incorporated into histone H1 or myelin basic protein was undertaken using Phosphoimager (original gel images shown on FIG. 1). IC50 were calculated from dose-response curves.

[3] = tested on: K562 (human chronic myeloblastic leukemia); test: In vitro cytotoxic activity, Calcein AM, three days; type: cell-based; conditions: read-out: K-562 IC50
Protocol: (§3) We have been using the following cell lines: HELA (human cervical carcinoma), MCF7 (human breast adenocarcinoma), NIH 3T3 (mouse fibroblasts), HOS (human osteogenic sarcoma), HL 60 (human promyelocytic leukemia), G 361 (human malignant melanoma), K562 (human chronic myeloblastic leukemia), CEM (human lymphoblastoid leukaemia). Tested drugs were added to the cell cultures in six different concentration and kept at 37° C. and 5% CO2 for three days. All cell lines were grown in DMBM medium (Gibco BRL) supplemented with 10% (v/v) fetal bovine serum and L-glutamine and maintained at 37° C. in a humidified atmosphere with 5% CO2. 10^4 cells were seeded into each well of 96 well plate, allowed to stabilize for at least 2 h and then tested compounds were added at various concentrations ranging from 200 to 0.2 μM in triplicates. Three days after drug addition Calcein AM solution (Molecular Probes) was added and let to enter the cells for 1 hour. Fluorescence of viable cells was quantified employing Fluoroskan Ascent (Microsystems).

[4] = tested on: MCF7 (human breast adenocarcinoma); test: as above; type: cell-based
Protocol: as §3

[5] = tested on: Cytokinin-dependent tobacco callus Nicotiana tabacum L. cv. Wisconsins 38; test: Tobacco callus bioassay for cytotoxicity (herbicidal activity); type: cell-based; conditions: Nicotiana tabacum, 672 h, four weeks
Protocol: The compounds to be tested were dissolved in dimethylsulfoxide (DMSO) and the solution brought up to 10^−3 M with distilled water. […] Cytokinin-dependent tobacco callus Nicotiana tabacum L. cv. […] Subcultivation was carried out every three weeks. Fourteen days before the bioassay, the callus tissue was transferred to the media without 6-benzylaminopurine. Compounds were tested with two different concentrations of 6-benzylaminopurine (10^−5 M and 10^−6 M). Inhibitory growth activity was determined from the increase in fresh callus weight after four weeks of cultivation. Five replicates were prepared for each concentration tested and the entire test was repeated at least twice.

[6] = molecular target: CDK2 (p33^cdk2, cyclin E) (Homo sapiens, UniProt P24941); test: CDK inhibition assay, p33^cdk2 kinase, histone H1 phosphorylation;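 note: Baculovirus-expressed kinase/cyclin complex from Sf9 cell extract, 10 min at 30 °C, phosphoproteins separated by SDS gel and quantified by image analysis, activity relative to DMSO control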
Protocol: Cyclin-dependent kinases (p34^cdc2, p33^cdk2) and cyclins (cyclin B, E) are produced in Sf9 insect cells coinfected with appropriate baculoviral constructs. The cells are harvested 68-72 hrs post infection in lysis buffer for 30 min on ice and the soluble fraction is recovered by centrifugation at 14.000 g for 10 min. The protein extract is stored at −80° C.
Lysis buffer: 50mM Tris pH 7.4, 150mM NaCl, 5 mM EDTA, 20 mM NaF, 1% Tween, 1 mM DTT, 0.1 mM PMSF, leupeptine, aprotonine.
To carry out experiments on kinetics under linear conditions, the final point test system for kinase activity measurement is used. The kinase is added to reaction mixture in such a way as to obtain linear activity with respect to the concentration of enzyme and with respect to time.
Kinase activity is determined at 30° C. in the kinase buffer.
Tested compounds are usually dissolved to 100 mM solutions in DMSO, final concentration of DMSO in reaction mixture never exceeds 1%. The controls contain suitable dilutions of DMSO.
After 10 min, addition 3×SDS sample buffer stops the incubations. Phosphorylated proteins are separated electrophoretically using 10% SDS polyacrylamide gel. The measurement of kinase activity is done using digital image analysis.
The kinase activity is expressed as a percentage of maximum activity, the apparent inhibition constants are determined by graphic analysis.
Kinase buffer: 50 mM Hepes pH 7.4, 10 mM MgCl2, 5 mM EGTA, 10 mM

[7] = molecular target: CDC2a (cdc2a-MS protein, plant Cdc2-kinase) (Medicago sativa, UniProt P24923); type: biochemical
Chain of CDC2a (cdc2a-MS protein, plant Cdc2-kinase) (Medicago sativa, UniProt P24923) (P24923 whole entry): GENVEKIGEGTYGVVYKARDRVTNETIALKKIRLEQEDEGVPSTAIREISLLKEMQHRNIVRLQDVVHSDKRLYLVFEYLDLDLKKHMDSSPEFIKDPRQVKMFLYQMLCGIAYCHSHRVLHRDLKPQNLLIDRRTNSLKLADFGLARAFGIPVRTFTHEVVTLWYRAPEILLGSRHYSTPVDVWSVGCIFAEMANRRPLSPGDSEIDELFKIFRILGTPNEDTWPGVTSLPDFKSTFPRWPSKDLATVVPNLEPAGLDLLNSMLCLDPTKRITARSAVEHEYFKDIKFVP
Protocol: as §1, §2

[8] = molecular target: MMK1 protein kinase (Vicia faba, UniProt A0AAV1B7B8); test: Plant MMK1 protein kinase inhibition assay; type: biochemical; conditions: plant kinase purified from Vicia faba extracts
Chain of MMK1 protein kinase (A0AAV1B7B8 entry or part of it): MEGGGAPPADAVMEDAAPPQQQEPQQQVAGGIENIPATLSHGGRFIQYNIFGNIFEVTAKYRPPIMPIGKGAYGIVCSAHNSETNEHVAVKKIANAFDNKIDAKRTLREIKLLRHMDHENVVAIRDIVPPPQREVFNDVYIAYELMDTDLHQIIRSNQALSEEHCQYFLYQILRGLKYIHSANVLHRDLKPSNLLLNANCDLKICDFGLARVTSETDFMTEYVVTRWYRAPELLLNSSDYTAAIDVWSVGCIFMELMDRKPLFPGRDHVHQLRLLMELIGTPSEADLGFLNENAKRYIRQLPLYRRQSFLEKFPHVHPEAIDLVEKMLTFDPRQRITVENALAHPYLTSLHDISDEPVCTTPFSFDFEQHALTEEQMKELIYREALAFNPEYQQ
Protocol: Protein extraction and purification of pant CDK by binding to p13^suc1-beads or immunopurification with an antibody specific to the cdc2a-MS protein was carried out as described previously (Bögre et al. 1997, Plant Physiol. 113, 1997, 841-852). The MMK1 protein kinase was purified with a specific antibody from Vicia faba extracts as described by Bögre et al. 1997a, Plant Cell 9, 75-83). Protein kinase activity was measured as described above in Example 19. The quantification of radioactivity incorporated into histone H1 or myelin basic protein was undertaken using Phosphoimager (original gel images shown on FIG. 1). IC50 were calculated from dose-response curves. The drugs inhibited the activity of immunopurified Vicia faba and alfalfa Cdc2-kinase. […] In contrast to the regular bipolar spindle in untreated cell, in drug-treated metaphase cells abnormally short and dense kinetochore microtubule fibres were observed. These microtubules were randomly arranged in the vicinity of the kinetochores and connected the chromosomes. Thus the chromosomes were not aligned on the metaphase plate but were arranged in a circle, with kinetochores pointing inwards and chromosome arms pointing outwards. γ-tubulin, which plays a role in microtubule nucleation, also localised to the centre of the monopolar spindle.

[9] = tested on: root meristem cells of V. faba; test: Antimitotic and apoptotic effects in plant root meristem cells; type: cell-based, Vicia faba; conditions: high doses
[10] = read-out: IC50, growth of tobacco callus, 10^−5 M BAP, 10^−5 M 6-benzylaminopurine
[11] = 10^−6 M 6-benzylaminopurine, read-out: IC50, growth of tobacco callus, 10^−6 M BAP
[12] = read-out: CDK2 IC50, 15 μM ATP, histone H1, 30° C.

T1 sequence (P06493 whole entry, species assumed): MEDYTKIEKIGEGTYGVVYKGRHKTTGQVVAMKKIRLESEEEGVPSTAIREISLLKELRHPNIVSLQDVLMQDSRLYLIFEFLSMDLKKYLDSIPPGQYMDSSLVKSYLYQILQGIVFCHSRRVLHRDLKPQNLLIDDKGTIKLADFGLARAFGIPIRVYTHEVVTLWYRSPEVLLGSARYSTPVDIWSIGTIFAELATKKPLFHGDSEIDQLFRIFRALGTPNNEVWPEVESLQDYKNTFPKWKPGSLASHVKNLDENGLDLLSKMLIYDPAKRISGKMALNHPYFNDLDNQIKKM
T1 sequence (P14635 whole entry partner, species assumed): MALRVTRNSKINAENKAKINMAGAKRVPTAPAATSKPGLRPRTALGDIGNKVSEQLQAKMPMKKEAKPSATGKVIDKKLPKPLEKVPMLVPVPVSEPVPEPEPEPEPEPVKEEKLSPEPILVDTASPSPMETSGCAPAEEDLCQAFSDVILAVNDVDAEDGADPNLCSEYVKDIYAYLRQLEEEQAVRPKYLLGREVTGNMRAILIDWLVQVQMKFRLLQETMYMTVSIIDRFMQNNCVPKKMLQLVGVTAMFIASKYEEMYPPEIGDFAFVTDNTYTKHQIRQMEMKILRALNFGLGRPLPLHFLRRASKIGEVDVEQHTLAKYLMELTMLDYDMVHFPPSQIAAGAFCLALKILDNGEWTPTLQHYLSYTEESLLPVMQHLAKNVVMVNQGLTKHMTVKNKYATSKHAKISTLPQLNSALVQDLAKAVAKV

Row | inhibition of plant cdc2 kinase activity (FIG. 1) [2] | melting point | IC50 [6] | Compound | IC50 [1] | IC50 ([3]; Homo sapiens, K562, 72 h) | IC50 ([4]; Homo sapiens, MCF7, 72 h) | IC50 [5, 10] | IC50 [5, 11] | IC50 [7] | IC50 [8] | IC50 [3] | IC50 [4] | IC50 [6, 12] | apoptosis in plant cells [9]
1 | specific inhibition | 153 to 154 °C | 0.5 µM | CC(C)c1n[nH]c2c(NCc3ccccc3)ncnc12 [benzylamino / isopropyl, 7-benzylamino-3-isopropylpyrazolo[4,3-d]pyrimidine] | 1.3 µM | 72 µM | 55 µM | 24 µM | 6.5 µM | – | – | – | – | – | –
2 | specific inhibition | – | 0.8 µM | CC(C)c1n[nH]c2c(Nc3cccc(Cl)c3)ncnc12 [3-chloroanilino / isopropyl, 7-(3-chloroanilino)-3-isopropylpyrazolo[4,3-d]pyrimidine] | 2 µM | 12 µM | 9 µM | 34 µM | 8.2 µM | – | – | – | – | – | –
3 | – | – | – | Cc1n[nH]c2c(Nc3cccc(Cl)c3)ncnc12 [3-chloroanilino / methyl] | 14 µM | – | – | – | – | 10 µM | 9.6 µM | 35 µM | 24 µM | 16 µM | –
4 | – | – | – | CC(C)c1n[nH]c2c(NC3CCCCC3N)ncnc12 (stereo not drawn) [(2-aminocyclohexyl)amino / isopropyl] | > 100 µM | – | – | – | – | > 100 µM | > 100 µM | > 167 µM | > 167 µM | > 100 µM | –
5 | – | – | – | Cc1n[nH]c2c(Nc3ccc(N)c(Cl)c3)ncnc12 [3-chloro-4-aminoanilino / methyl] | 26 µM | – | – | – | – | 30 µM | 32 µM | – | – | 28 µM | –
6 | – | – | – | Cc1n[nH]c2c(NCc3ccccc3Cl)ncnc12 [2-chlorobenzylamino / methyl] | 25 µM | – | – | – | – | – | 25 µM | – | – | 24 µM | –
7 | – | – | – | CC[C@H](CO)Nc1nc(NCc2ccccc2)c2ncn(C(C)C)c2n1 [roscovitine] | – | – | – | – | – | – | – | – | – | – | induced apoptosis
8 | specific inhibition | – | 0.9 µM | CC(C)c1n[nH]c2c(NCc3cccc(O)c3)ncnc12 [3-hydroxybenzylamino / isopropyl, 7-(3-hydroxybenzylamino)-3-isopropylpyrazolo[4,3-d]pyrimidine] | 1.1 µM | 132 µM | 105 µM | – | – | – | – | – | – | – | –
9 | specific inhibition | – | 16 µM | Cc1n[nH]c2c(NCc3ccco3)ncnc12 [furfurylamino / methyl, 7-furfurylamino-3-methylpyrazolo[4,3-d]pyrimidine] | 18 µM | > 167 µM | 142 µM | – | – | – | – | – | – | – | –
10 | – | – | – | CC(C)c1n[nH]c2c(Nc3ccc(Cl)c(C(=O)O)c3)ncnc12 [3-carboxy-4-chloroanilino / isopropyl] | 2.8 µM | – | – | – | – | 1.6 µM | 1.7 µM | 1 µM | 0.4 µM | 2.9 µM | –

Reference: patent publication US20070167466A1, “"Pyrazolo [4,3-d]pyrimidines, processes for their preparation and methods of use"” (priority 2003, published 2007)
